Entries after “also recorded” stand apart in the source; their conditions may differ.
Experiments:
[1] = Ex situ reduction of gold precursors by NADH to Au NPs, monitored by UV-vis spectra; conditions: for formation of Au NPs / reduction to Au0 when mixed with NADH: gold precursor mixed with NADH, ex situ
Description: Gold (III) chloride (AuCl3) and cofactors, NADH, NADPH and ATP, were purchased from Sigma/Aldrich (St. Louis, MO). Paraformaldehyde/glutaraldehyde fixative solution was purchased from Electron Microscopy Sciences (Hatfield, PA). Gold NPS were formed through reduction of the AuCl3 by cofactors. Briefly, 100 μM NADH solution in PBS, pH 7.4, was placed in a cuvette and mixed with aliquots of AuCl3 in the same buffer to achieve 4:1, 2:1, and equimolar NADH/precursor ratios, at room temperature under constant stirring. Oxidation of NADH and formation of Au NPs were recorded at 340 nm and 520 nm, respectively, by UV-vis spectra using CARY-50 spectrophotometer.
AuCl3 was chosen as a precursor due to higher electron sinking capacity of Au (III) and higher stability as compared to Au(I) that can transform in vivo into Au(III) (Thakor et al., Nano Lett, 2011, 11: 4029-4036).

[2] = test system: living acute brain sections; experiment: In-situ gold nanoparticle biosynthesis in hypoxic living acute brain sections (staining, SAXS/WAXS, TEM); type: cell-based, mice C57BL/6J
Description: All animal procedures and the brain slice preparation procedures were performed in accordance with the Institutional Animal Care and Use Committee at the University of Chicago. Experimental mice C57BL/6J (male, 17 days old, n=2) were anesthetized by intraperitoneal injection of ketamine-xylazine, decapitated, and had their brains quickly removed. The brains were placed to the ice-cold “cut” artificial cerebrospinal fluid (ACSF) solution (containing the following, in mM: 3 KCl, 26 NaHCO3, 1 NaH2PO4, 0.5 CaCl2), 3.5 MgSO4, 25 dextrose, 123 sucrose) for quick, less than 5 min, slicing on vibratome at a thickness of 450 μm. The sections then were placed into an oxygenated incubation ACSF solution (containing the following, in mM: 123 NaCl, 3 KCl, 26 NaHCO3, 1 NaH2PO4, 2 CaCl2), 6 MgSO4, 25 dextrose) for 40 min, maintained at 32-36° C. (Sadovsky et al., J Neurosci, 2013, 33:14048-676). Tissue was left to rest at room temperature for 30 min before hypoxic induction. Hypoxia was induced in brain slices (i.e., living acute brain sections) in an oxygen-deprived chamber for 5 min, while their opposite hemisphere counterparts were used as normally oxygenated controls.
Three aliquots of aqueous AuCl3 were added to oxygen-deprived and oxygenated (control) brain slices to reach 100 μM-10 mM final concentrations of the precursor, incubated for 5 min, thoroughly rinsed (to ensure removal of precursor excess), and fixed using 2% glutaraldehyde+2% paraformaldehyde in 0.1M phosphate buffer, pH 7.4, and then stored in the same fixing solution at +5° C. before imaging and analyses.
Before the beam experiment, brain slices were removed from the ACSF solution, and mounted by sealing them between two thin glass cover slides (Fisherfinest). In situ small-angle X-ray scattering (SAXS) and wide angle X-ray scattering (WAXS) (SAXS/WAXS) measurements were carried out at beamline 12-ID-B of the Advanced Photon Source (APS), Argonne National Laboratory. In situ SAXS data were analyzed by custom-built software that is run on Matlab after standard data correction including background correction.
To isolate Au NPs, fixed brain slices were freeze-dried and mechanically grinded down. Then the NPs were extracted by DI water followed by separation of the biological debris via centrifugation (2000 rpm for 10 min). The NPs-containing supernatant were dropped onto an Ultrathin Carbon Cu transmission electron microscopy (TEM) grid with the Formvar pre-removed in toluene. Samples were allowed to set for about 1 hour and then rinsed by DI water. TEM analysis of the NPs was performed with a JEM-2100F field emission electron microscope (JEOL LTD, Tokyo, Japan) operated at 200 kV.
Coronal 450 μm thick sections of the mouse brain were isolated and prepared by a technique that allows maintaining the integrity of the isolated brain functions for sufficient experimental time-lapse, as depicted in FIGS. 4A-D. (See Sadovsky et al., J Neurosci, 2013, 33: 14048-U14676). The prepared living brain slices were incubated in a chamber with oxygenated ACSF solution (containing the following, in mM: 123 NaCl, 3 KCl, 26 NaHCO3, 1 NaH2PO4, 2 CaCl2), 6 MgSO4, 25 dextrose) for 40 min, maintained at 32-36° C. (Sadovsky et al., J Neurosci, 2013, 33: 14048-14676). Tissue was left to rest at room temperature for 30 min before hypoxic induction. Hypoxia was induced in brain slices in an oxygen-deprived chamber for 5 min, while their opposite hemisphere counterparts were used as normally oxygenated controls. […]

O=C([O-])CC([S-])C(=O)[O-].[Au+].[Na+].[Na+] (stereo not drawn) [myochrysine, reference compound]
formation of Au NPs / reduction to Au0 when mixed with NADH [1]: yielded no Au NPs

Gold (III) chloride [AuCl3]
time of reaction after which pink color was detected by the naked eye ([1]; AuCl3/NADH molar ratio 1:4): 20 min
time to appearance of new peak at 520 nm characteristic for Au NPs ([1]; AuCl3/NADH molar ratio 1:4): ~7 min
oxidation of NADH (peak at 340 nm) ([1]; AuCl3/NADH molar ratio 1:4, NADH aqueous solution, UV-vis): immediate drop of the intensity of peak at 340 nm
staining indicative of Au NPs in brain slices ([2]; hypoxic slices, 100 μM precursor, 5 min incubation): revealed staining localized mainly in the outer regions of the brain section; also recorded: pink staining mainly in the outer regions of the brain section
formation of Au NPs / staining in brain slices ([2]; hypoxic slices, 10 mM precursor): significant dark staining
formation of Au NPs / staining in brain slices ([2]; hypoxic slices, 10 mM precursor, listed as Au(III) precursor): formation of Au NPs took place only in hypoxic brain slices
formation of Au NPs / staining in brain slices ([2]; oxygenated (control) brain slices exposed to precursor): preserves its natural color
formation of Au NPs / staining in brain slices ([2]; oxygenated (control) brain slices exposed to precursor, listed as Au(III) precursor): No Au NPs were detected

[Cl][Au] [AuCl, gold monochloride]
formation of Au NPs / reduction to Au0 when mixed with NADH [1]: reduced by NADH to Au^0

OC[C@H]1O[C@H]([S-])[C@H](O)[C@@H](O)[C@@H]1O.[Au+] [solganal, reference compound]
formation of Au NPs / reduction to Au0 when mixed with NADH [1]: yielded no Au NPs

CC(=O)OC[C@H]1O[C@@H]([S-])[C@H](OC(C)=O)[C@@H](OC(C)=O)[C@@H]1OC(C)=O.CCP(CC)CC.[Au+] [auranofin, reference compound]
formation of Au NPs / reduction to Au0 when mixed with NADH [1]: yielded no Au NPs

From patent US12048714B2, “Products and methods for organ protection with noble nanoparticles” (UCHICAGO ARGONNE, LLC, priority 2020, dated 2024)
